Series [1] has as its system Staphylococcus aureus Ap01. As to the kind of experiment: Minimum inhibitory concentration, serial dilution on Mueller-Hinton agar. The conditions noted are these: 37° C., 17 hours. The class given is cell-based. From the text:
(§1) Minimum inhibitory concentrations (mcg/ml) of the parent 3-O-demethylistamycin B were also estimated in the same manner for the comparison purpose and also are shown in Table 1.

Another series relates to Serratia marcescens. Described as above. The conditions noted are these: for Minimum inhibitory concentration: Mueller-Hinton agar, 37° C., 17 hours. In kind it is cell-based.
Description: as §1

Series [2] relates to Escherichia coli JR66/W677. The series is described as above. The settings on record: for Minimum inhibitory concentration: Escherichia coli JR66/W677, Mueller-Hinton agar, 37° C., 17 hours. In kind it is cell-based.
Description: as §1

Another series concerns Providencia Pv 16. The series is described as above. In kind it is cell-based. The conditions noted are these: 17 hours; for Minimum inhibitory concentration: 37° C.
Description: as §1

In series [3] the test system is Staphylococcus aureus 209P. The description is as above. The class given is cell-based. The settings on record: 37° C., 17 hours.
Description: as §1

Series [4] relates to Pseudomonas aeruginosa TI-13. The description is as above. In kind it is cell-based. The conditions noted are these: for Minimum inhibitory concentration: Pseudomonas aeruginosa TI-13, Mueller-Hinton agar, 37° C., 17 hours.
Description: as §1

Series [5] has as its system Pseudomonas aeruginosa H9. The series is described as above. In kind it is cell-based. The conditions noted are these: 37° C., 17 hours.
Description: as §1

Series [6] relates to Pseudomonas aeruginosa A3. Described as above. The class given is cell-based. The conditions noted are these: for Minimum inhibitory concentration: Pseudomonas aeruginosa A3, Mueller-Hinton agar, 37° C., 17 hours.
Description: as §1

The subject of series [7] is Pseudomonas aeruginosa GN315. The description is as above. The class given is cell-based. The settings on record: for Minimum inhibitory concentration: Pseudomonas aeruginosa GN315, Mueller-Hinton agar, 37° C., 17 hours.
Description: as §1

Another series has as its system Escherichia coli K-12 R5. The series is described as above. The class given is cell-based.
Description: as §1

Series [8] deals with Escherichia coli K-12 LA290 R55. Described as above. The class given is cell-based.
Description: as §1

The subject of the next series is Escherichia coli JR225. Described as above. The class given is cell-based. The conditions noted are these: JR225, 17 h, read-out: Minimum inhibitory concentration.
Description: as §1

Series [9] deals with Escherichia coli K-12 C600 R135. Described as above. The conditions noted are these: K12C600R135, 37° C., 17 hours. In kind it is cell-based.
Description: as §1

The next series concerns Escherichia coli K-12. The series is described as above. The class given is cell-based. The settings on record: K12, 37° C., 17 hours.
Description: as §1

The subject of series [10] is Escherichia coli K-12 ML1629. The series is described as above. The settings on record: K12ML1629, 37° C., 17 hours. The class given is cell-based.
Description: as §1

Series [11] is described as follows: Acute toxicity, intravenous administration in mice. The class given is in vivo. The settings on record: ICR mice. How it is done:
A test compound was diissolved in 0.25 ml of a physiological saline solution and the solution of the test compound so prepared was intravenously administered into a series of mouse groups each consisting of six mice (ICR strain, adult female, body weight 20 g±0.5 g) as the test animal, […] Acute toxicity of 3-O-demethylistamycin B was also estimated in the same manner as above for the comparison purpose. […]

The test system of series [12] is gram-negative and gram-positive bacteria, including Pseudomonas aeruginosa. The conditions noted are these: cited earlier filings; cited from earlier work.

The term LD50 denotes the dose at which mortality reaches 50%. Read a high LD50 as a less toxic substance.

Converted amounts (≈) assume the structure as drawn.

On to “3-O-demethylistamycin B-di-N-methanesulfonic acid sodium salt [Compound (2)]”, for which the Minimum inhibitory concentration in [1] was 1.56 µg/mL; in the series on Serratia marcescens, 12.5 µg/mL; in series [2] it was 6.25 µg/mL; in the series on Providencia Pv 16, 3.13 µg/mL; in series [3], 1.56 µg/mL; in [4], 6.25 µg/mL. The Minimum inhibitory concentration in series [5] is 12.5 µg/mL; in series [6] it was 3.13 µg/mL; in series [7], 6.25 µg/mL.

Consider “3-O-demethylistamycin B-mono-N-methanesulfonic acid sodium salt [Compound (1)]”, for which the Minimum inhibitory concentration in series [1] is 1.56 µg/mL; in the series with Serratia marcescens it was 6.25 µg/mL; in [2], 6.25 µg/mL; in the series with Providencia Pv 16, 3.13 µg/mL; in [3], 0.78 µg/mL; in series [4], 6.25 µg/mL. In addition, the figures for the Minimum inhibitory concentration in series [5], in series [6] and in series [7] were 12.5 µg/mL, 0.78 µg/mL and 12.5 µg/mL, respectively.

Take “3-O-demethylistamycin B-tetra-N-methanesulfonic acid sodium salt [Compound (4)]”: the Minimum inhibitory concentration in series [1] came to 3.13 µg/mL; in the series on Escherichia coli K-12 R5 (Escherichia coli K-12 R5, Mueller-Hinton agar, 37° C., 17 hours), 25 µg/mL; in the series on Serratia marcescens, 25 µg/mL; in series [2], 25 µg/mL; with Providencia Pv 16, 6.25 µg/mL; in [3], 1.56 µg/mL. For the same compound, the Minimum inhibitory concentration in series [4] turned out to be 25 µg/mL; in series [5], 25 µg/mL; in [6] it was 1.56 µg/mL; in [7] it was 25 µg/mL; in series [8] (Escherichia coli K-12 LA290 R55, Mueller-Hinton agar, 37° C., 17 hours), 12.5 µg/mL.

For the compound “3-O-demethylistamycin B-tri-N-methanesulfonic acid sodium salt [Compound (3)]”, the Minimum inhibitory concentration was determined as 1.56 µg/mL in [1]; 12.5 µg/mL with Serratia marcescens; 6.25 µg/mL in series [2]; 3.13 µg/mL with Providencia Pv 16; 0.78 µg/mL in series [3]; 6.25 µg/mL in [4]. Besides, the Minimum inhibitory concentration in series [5] is 12.5 µg/mL; in series [6], 0.78 µg/mL; in series [7] it was 12.5 µg/mL.

For `CNCC1CCC(N)C(OC2C(N)CC(O)C(N(C)C(=O)CN)C2O)O1` (centres unmarked) [3-O-demethylistamycin B], the MIC in series [1] was 0.39 µg/mL (≈ 1.04 µM); in the series with Escherichia coli JR225, 0.78 µg/mL (≈ 2.08 µM); in the series with Escherichia coli K-12 R5 (Escherichia coli, K12R5, 17 h, read-out: Minimum inhibitory concentration), 3.13 µg/mL (≈ 8.34 µM); with Serratia marcescens (17 h, read-out: Minimum inhibitory concentration), 1.56 µg/mL (≈ 4.15 µM); in [9], 1.56 µg/mL (≈ 4.15 µM); in [2] (Escherichia coli, JR66/W677, 17 h, read-out: Minimum inhibitory concentration), 1.56 µg/mL (≈ 4.15 µM). Also, the MIC was 0.78 µg/mL (≈ 2.08 µM) against Escherichia coli K-12; 0.78 µg/mL (≈ 2.08 µM) in the series with Providencia Pv 16 (PV16, 37° C.); 0.39 µg/mL (≈ 1.04 µM) in series [3]; 1.56 µg/mL (≈ 4.15 µM) in [10]; 6.25 µg/mL (≈ 16.6 µM) in series [4] (Pseudomonas aeruginosa, TI13, 17 h, read-out: Minimum inhibitory concentration); 12.5 µg/mL (≈ 33.3 µM) in [5]. In addition, the MIC in series [6] (Pseudomonas aeruginosa, A3, 17 h, read-out: Minimum inhibitory concentration) turned out to be 0.2 µg/mL (≈ 0.533 µM); in series [7] (Pseudomonas aeruginosa, GN315, 17 h, read-out: Minimum inhibitory concentration) it was 6.25 µg/mL (≈ 16.6 µM); in series [8] (Escherichia coli, K12LA290R55, 17 h, read-out: Minimum inhibitory concentration), 0.78 µg/mL (≈ 2.08 µM). The death of mice entry in [11] (320 mg/kg, within 24 hours) is listed as “all mice died within 24 hours”. This compound also had an LD50 in series [11] (mouse, in vivo, adult female) of 160 to 320 mg/kg. The antibacterial activity result in [12] is “high antibacterial activity”.

The record behind these values is patent US4472388A, “N-Methanesulfonic acid derivatives of 3-O-demethylistamycin B and production thereof” (Zaidan Hojin Biseibutsu Kagaku Kenkyu Kai, priority 1982, dated 1984).
